We go through five compounds from patent US20080318876A1, “Use of Ginsenosides in the Treatment of Aids” (priority 2004, published 2008).

pEC50, pIC50: −log10 of the molar value. Read-outs that look alike come from different tables or passages of the source.

For one assay, the system named is HIV-1 in Hela-CD4 cells. In words: Combination medication JHR and AZT (MAGI test). The assay is classed as cell-based. The procedure: Method: For the experiment, the MAGI test method was adopted (the same as above).
(A) Single-agent medication: five doses of AZT were used in amount of from 1 μM to 3.9 nM, and were designated AZT1-5, five doses of JHR were designated in amount of 400 ug/ml to 1.56 ug/ml, and IC50 were obtained respectively.
Half dosage of AZT was combined with half dosage of JHR-1 as one sample. AZT1 was combined respectively with any of JHR1-JHR5; Each of AZT2, AZT3, AZT4, AZT5 was respectively combined with any of […]. So a total of 25 concentration combinations could be used. Each concentration was set in duplicate wells (2 wells). Additional group was taken as cell and virus controls.
(C) Comparing each drug combination with the virus group to have the inhibition rate. The inhibition rate of each drug combination was compared with the sole AZT IC50 to obtain the difference of functions each other.

The subject of assay [1] is HIV-1 (single-life-cycle reporter HIV) in Hela-CD4-LTR-gal cells. The experiment in a line: Inhibition of HIV-1 replication in HeLa-CD4 cells (MAGI test). The assay is classed as cell-based. Conditions: for inhibition at 200 µg/mL: Human immunodeficiency virus 1, MAGI, read-out: Inhibition Rate (0.2 mg/ml). The method, then: Three types of cells (such as MT4, Hela-CD4, PBMC) were infected respectively with HIV-1 virus for observation of the inhibiting effects of ginseng composition (JHR) prepared in Example 1 upon the HIV-1 replication.
Virus: Single-life-cycle reporter HIV was acquired by transfection with HIV plasmids.
Method: Hela-CD4-LTR-gal cell was inoculated into a 24-well plate at 0.4×10^5/well and cultured for 24 hours and let the cells absorb and adhere to the wall. On the second day, the supernatants were sucked away from the wells and 100 μl drug (drug control) or drug (drug solutions with different concentrations) and HIV-1 or culture medium (Mock) were added. After 2 hours, 200 μl of identical drug solutions or culture medium was added into each well for culturing at 37° C. in a CO2 incubator for 48 hours and detecting by the following method.
Fixation: The supernatants were sucked away from each well and adding the fixative solution (1 ml), and then by staining with K4[Fe(CN)6].3H2O, K3[Fe(CN)6] and X-gel.
Counting: For the blue cell counts (BCC) within each well, the following formula is used to calculate the IR and then IC50.
The same method as that in example 1 is applied, except that the drug added into the wells is Ginsenoside monomer, and the concentration thereof is listed in table 3.

Assay [2] relates to HIV single life cycle model. In words: Viral life cycle stage targeted: dosing at different times post-infection (single life cycle model, MAGI or Luciferase). In kind it is cell-based.
A further assay addresses gp41 protein (Human immunodeficiency virus type 1 group M subtype B, UniProt P03375). The experiment in a line: BIACORE binding to gp41 protein. Conditions: BIACORE chip, genetically recombined gp41; conjugation to gp41 stronger than to gp120. The source says:
The genetically recombined gp41, gp120 were placed on the chip of BIACORE analyzer, respectively, after adding a certain concentration of Rb3 in sufficient amount, the instrument could detect whether or not there was a binding.
(In general: Surface plasmon resonance follows binding to a sensor surface in real time, without labels.)

In a further assay the target is T1, gp120 protein (Human immunodeficiency virus type 1 group M subtype B, UniProt P03375).
T1 construct: The genetically recombined gp41, gp120 were placed on the chip of BIACORE analyzer
The assay is classed as binding. Conditions: BIACORE chip, genetically recombined gp120.

On to `Cc1cn([C@H]2C[C@H](N=[N+]=[N-])[C@@H](CO)O2)c(=O)[nH]c1=O` [AZT], for which the pEC50 with HIV-1 in Hela-CD4 cells (AZT alone or AZT combined with JHR dose 1-5, MAGI test, read-out: ED50 (the source's name)) was 7.34. Moreover, the negative-log IC50 (pIC50) with HIV-1 in Hela-CD4 cells (AZT alone, read-out: IC50 of AZT alone) is 7.34; in the assay with HIV-1 in Hela-CD4 cells (combined with the first dose of JHR, read-out: IC50 of AZT after combining with the first dose of JHR) it was 8.24.

Consider `CC(C)=CCC[C@](C)(OC1OC(COC2OC(CO)C(O)C(O)C2O)C(O)C(O)C1O)[C@H]1CC[C@]2(C)[C@@H]1[C@H](O)C[C@@H]1[C@@]3(C)CC[C@H](OC4OC(CO)C(O)C(O)C4OC4OC(CO)C(O)C(O)C4O)C(C)(C)[C@@H]3CC[C@]12C` (stereo partly shown) [Rb1], for which the inhibition at 200 µg/mL in assay [1] was determined as 41.9%.

Regarding `CC(C)=CCC[C@](C)(OC1OC(COC2OCC(O)C(O)C2O)C(O)C(O)C1O)[C@H]1CC[C@]2(C)[C@@H]1[C@H](O)C[C@@H]1[C@@]3(C)CC[C@H](OC4OC(CO)C(O)C(O)C4OC4OC(CO)C(O)C(O)C4O)C(C)(C)[C@@H]3CC[C@]12C` (stereo partly shown) [Rb2], in assay [1], the inhibition at 200 µg/mL was determined as 42.9%.

Take `CC(C)=CCC[C@](C)(O[C@@H]1O[C@H](CO[C@@H]2OC[C@@H](O)[C@H](O)[C@H]2O)[C@@H](O)[C@H](O)[C@H]1O)[C@H]1CC[C@]2(C)[C@@H]1[C@H](O)C[C@@H]1[C@@]3(C)CC[C@H](O[C@@H]4O[C@H](CO)[C@@H](O)[C@H](O)[C@H]4O[C@@H]4O[C@H](CO)[C@@H](O)[C@H](O)[C@H]4O)C(C)(C)[C@@H]3CC[C@]12C` [Rb3]: the results for the “Inhibition rate (%)” value in assay [2] (dosing 2 hours post-infection), in assay [2] (dosing 10 hours post-infection) and in assay [2] (dosing 29 hours post-infection) were 83.98%, 0% and 0%, respectively. Besides, the “binding to gp41 protein” value at gp41 protein was “can bind”. The “Inhibition Rate (0.2 mg/ml)” value in assay [1] (Hela-CD4 cell strain, 0.2 mg/ml) stood at 70.68%. Besides, the “Inhibition Rate (0.4 mg/ml)” value in assay [1] (Hela-CD4 cell strain, 0.4 mg/ml) stood at 97.9%. Further, the “binding to gp120 protein” value on gp120 protein was “can bind”.

`CC(C)=CCC[C@](C)(OC1OC(COC2OC(CO)C(O)C2O)C(O)C(O)C1O)[C@H]1CC[C@]2(C)[C@@H]1[C@H](O)C[C@@H]1[C@@]3(C)CC[C@H](OC4OC(CO)C(O)C(O)C4OC4OC(CO)C(O)C(O)C4O)C(C)(C)[C@@H]3CC[C@]12C` (stereo partly shown) [Rc]: the inhibition at 200 µg/mL in assay [1] was determined as 60.7%.

Usually pIC50 stands for the IC50 on a negative log10 scale, so that one unit is a factor of ten.
